# Patent US20110166191A1, “3-(2-amino-ethyl)-5-(3-cyclohexyl-propylidene)-thiazolidine-2,4-dione and its derivatives as multiple signaling pathway inhibitors and for the treatment of cancer” (priority 2010, published 2011)
# Experiments:
# Format in all cases: cell-based
# [1] = tested on: p-MEK; experiment: Western blot analysis of p-MEK in U937 cells; conditions: PMA/TPA 200 nM stimulation
# Procedure: FIG. 1. U937 cells were treated with Formula II prepared as described in Example 4 [i.e. 3-(2-aminoethyl)-5-(3-cyclohexylpropylidene)thiazolidine-2,4-dione] for 1 h, then stimulated with PMA (200 nM) for 30 min. Lysates were analyzed for p-Akt, p-MEK, p-ERK and α-tubulin by western blot analysis.
# Cells (5×10^5 per ml) were treated with various concentrations of test compound at 37° C. (5% CO2) for 3 hrs, then stimulated with TPA at a final concentration of 200 nM for 20 min. Samples from whole-cell pellets were prepared and 30 μg protein for each condition was subjected to SDS-PAGE, transferred onto a PVDF membrane, and blocked with 5% fat-free milk for 30 min. The membrane is probed with primary antibodies overnight at 4° C. followed by incubation with horseradish peroxidase-labeled anti-mouse IgG (1:5000, BD Biosciecne). The immunoreactive bands are detected by chemiluminescence methods (Pierce) and visualized on Kodak Omat film. The following primary antibodies were used: phospho-p44/42 MAPK (ERK1/2, Thr202/Tyr204), p44/42 MAPK, phospho-p90RSK (Thr359/Ser363), RSK1/RSK2/RSK3 (Cell Signaling). Blots were reprobed with antibodies against α-tubulin to ensure equal loading and transfer of proteins.
# [2] = tested on: MOLT-4; experiment: NCI 60 cell line panel screening; conditions: Homo sapiens, Leukemia, read-out: Growth Inhibition (GI50)
# Text: (§1) Compound 3-(2-aminoethyl)-5-(3-cyclohexylpropylidene)thiazolidine-2,4-dione was screened at five concentrations in National Cancer Institute (NCI) 60-cell line panel according to NCI's protocol for growth inhibition.
# [3] = tested on: HCC-2998; experiment: NCI 60 cell line panel screening; conditions: Homo sapiens, Colon Cancer, read-out: Growth Inhibition (GI50)
# Text: as §1
# [4] = tested on: UO-31; experiment: NCI 60 cell line panel screening; conditions: Homo sapiens, Renal Cancer, read-out: Growth Inhibition (GI50)
# Text: as §1
# [5] = tested on: M14; experiment: NCI 60 cell line panel screening; conditions: Homo sapiens, Melanoma, read-out: Growth Inhibition (GI50)
# Text: as §1
# [6] = tested on: SF-539; experiment: NCI 60 cell line panel screening; conditions: Homo sapiens, CNS Cancer, read-out: Growth Inhibition (GI50)
# Text: as §1
# [7] = tested on: K-562; experiment: NCI 60 cell line panel screening; conditions: Homo sapiens, K562, Leukemia, read-out: Growth Inhibition (GI50)
# Text: as §1
# [8] = tested on: MDA-MB-468; experiment: NCI 60 cell line panel screening; conditions: Homo sapiens, Breast Cancer, read-out: Growth Inhibition (GI50)
# Text: as §1
# [9] = tested on: NCI-H322M; experiment: NCI 60 cell line panel screening; conditions: Homo sapiens, Non-Small Cell Lung Cancer, read-out: Growth Inhibition (GI50)
# Text: as §1
# [10] = tested on: SNB-19; experiment: NCI 60 cell line panel screening; conditions: Homo sapiens, CNS Cancer, read-out: Growth Inhibition (GI50)
# Text: as §1
# [11] = tested on: SK-MEL-28; experiment: NCI 60 cell line panel screening; conditions: Homo sapiens, Melanoma, read-out: Growth Inhibition (GI50)
# Text: as §1
# [12] = tested on: KM12; experiment: NCI 60 cell line panel screening; conditions: Homo sapiens, Colon Cancer, read-out: Growth Inhibition (GI50)
# Text: as §1
# [13] = tested on: 786-0; experiment: NCI 60 cell line panel screening; conditions: Homo sapiens, Renal Cancer, read-out: Growth Inhibition (GI50)
# Text: as §1
# [14] = tested on: SF-268; experiment: NCI 60 cell line panel screening; conditions: Homo sapiens, CNS Cancer, read-out: Growth Inhibition (GI50)
# Text: as §1
# [15] = tested on: MALME-3M; experiment: NCI 60 cell line panel screening; conditions: Homo sapiens, Melanoma, read-out: Growth Inhibition (GI50)
# Text: as §1
# [16] = tested on: BT-549; experiment: NCI 60 cell line panel screening; conditions: Homo sapiens, Breast Cancer, read-out: Growth Inhibition (GI50)
# Text: as §1
# [17] = tested on: UACC-62; experiment: NCI 60 cell line panel screening; conditions: Homo sapiens, Melanoma, read-out: Growth Inhibition (GI50)
# Text: as §1
# [18] = tested on: TK-10; experiment: NCI 60 cell line panel screening; conditions: Homo sapiens, Renal Cancer, read-out: Growth Inhibition (GI50)
# Text: as §1
# [19] = tested on: LOX IMVI; experiment: NCI 60 cell line panel screening; conditions: Homo sapiens, Melanoma, read-out: Growth Inhibition (GI50)
# Text: as §1
# [20] = tested on: OVCAR-4; experiment: NCI 60 cell line panel screening; conditions: Homo sapiens, Ovarian Cancer, read-out: Growth Inhibition (GI50)
# Text: as §1
# [21] = tested on: MDA-MB-435; experiment: NCI 60 cell line panel screening; conditions: Homo sapiens, Melanoma, read-out: Growth Inhibition (GI50)
# Text: as §1
# [22] = tested on: EKVX; experiment: NCI 60 cell line panel screening; conditions: Homo sapiens, Non-Small Cell Lung Cancer, read-out: Growth Inhibition (GI50)
# Text: as §1
# [23] = tested on: SF-295; experiment: NCI 60 cell line panel screening; conditions: Homo sapiens, CNS Cancer, read-out: Growth Inhibition (GI50)
# Text: as §1
# [24] = tested on: CCRF-CEM; experiment: NCI 60 cell line panel screening; conditions: Homo sapiens, Leukemia, read-out: Growth Inhibition (GI50)
# Text: as §1
# [25] = tested on: MDA-MB-231/ATCC; experiment: NCI 60 cell line panel screening; conditions: Homo sapiens, Breast Cancer, read-out: Growth Inhibition (GI50)
# Text: as §1
# [26] = tested on: UACC-257; experiment: NCI 60 cell line panel screening; conditions: Homo sapiens, Melanoma, read-out: Growth Inhibition (GI50)
# Text: as §1
# [27] = tested on: U251; experiment: NCI 60 cell line panel screening; conditions: Homo sapiens, U-251, CNS Cancer, read-out: Growth Inhibition (GI50)
# Text: as §1
# [28] = tested on: HOP-92; experiment: NCI 60 cell line panel screening; conditions: Homo sapiens, Non-Small Cell Lung Cancer, read-out: Growth Inhibition (GI50)
# Text: as §1
# [29] = tested on: CAKI-1; experiment: NCI 60 cell line panel screening; conditions: Homo sapiens, Renal Cancer, read-out: Growth Inhibition (GI50)
# Text: as §1
# [30] = tested on: NCI-522; experiment: NCI 60 cell line panel screening; conditions: Non-Small Cell Lung Cancer, read-out: Growth Inhibition (GI50)
# Text: as §1
# [31] = tested on: NCI/ADR-RES; experiment: NCI 60 cell line panel screening; conditions: Homo sapiens, Ovarian Cancer, read-out: Growth Inhibition (GI50)
# Text: as §1
# [32] = tested on: NCI-H460; experiment: NCI 60 cell line panel screening; conditions: Homo sapiens, Non-Small Cell Lung Cancer, read-out: Growth Inhibition (GI50)
# Text: as §1
# [33] = tested on: SK-MEL-5; experiment: NCI 60 cell line panel screening; conditions: Homo sapiens, Melanoma, read-out: Growth Inhibition (GI50)
# Text: as §1
# [34] = tested on: A549/ATCC; experiment: NCI 60 cell line panel screening; conditions: Homo sapiens, Non-Small Cell Lung Cancer, read-out: Growth Inhibition (GI50)
# Text: as §1
# [35] = tested on: OVCAR-8; experiment: NCI 60 cell line panel screening; conditions: Homo sapiens, Ovarian Cancer, read-out: Growth Inhibition (GI50)
# Text: as §1
# [36] = tested on: SW-620; experiment: NCI 60 cell line panel screening; conditions: Homo sapiens, Colon Cancer, read-out: Growth Inhibition (GI50)
# Text: as §1
# [37] = tested on: HCT-15; experiment: NCI 60 cell line panel screening; conditions: Homo sapiens, Colon Cancer, read-out: Growth Inhibition (GI50)
# Text: as §1
structure (smiles),measurement,setting,value
"NCCN1C(=O)S/C(=C\CCC2CCCCC2)C1=O [Example 4, 3-(2-aminoethyl)-5-(3-cyclohexylpropylidene)thiazolidine-2,4-dione]",p-MEK level (western blot),[1],dose-dependently decreased the p-MEK level
same,GI50,[2],2380 nM
same,GI50,[3],1780 nM
same,GI50,[4],1560 nM
same,GI50,[5],1680 nM
same,GI50,[6],1830 nM
same,GI50,[7],2590 nM
same,GI50,[8],1860 nM
same,GI50,[9],5100 nM
same,GI50,[10],4460 nM
same,GI50,[11],1770 nM
same,GI50,[12],1770 nM
same,GI50,[13],1720 nM
same,GI50,[14],2230 nM
same,GI50,[15],1800 nM
same,GI50,[16],2050 nM
same,GI50,[17],2140 nM
same,GI50,[18],2010 nM
same,GI50,[19],1400 nM
same,GI50,[20],1600 nM
same,GI50,[21],1850 nM
same,GI50,[22],2530 nM
same,GI50,[23],1730 nM
same,GI50,[24],2500 nM
same,GI50,[25],2080 nM
same,GI50,[26],1690 nM
same,GI50,[27],1720 nM
same,GI50,[28],5410 nM
same,GI50,[29],1640 nM
same,GI50,[30],1400 nM
same,GI50,[31],2200 nM
same,GI50,[32],1950 nM
same,GI50,[33],1700 nM
same,GI50,[34],2500 nM
same,GI50,[35],1890 nM
same,GI50,[36],1850 nM
same,GI50,[37],2470 nM
